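1) Cells in 96-well plates. 2) Compound, 48 h, 5 concentrations. 3) Linear interpolation between surrounding doses. 4) Unreached endpoint = highest concentration. GI50 = concentration required for 50% inhibition of growth. Definition used: TGI = concentration required for complete inhibition of growth.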
Columns and labels:
Experiment in all cases: DTP human tumour cell line panel, 48 h
SK-MEL-28 melanoma = test system: SK-MEL-28 melanoma
HCT-116 colon = test system: HCT-116 colon
IGROV1 ovarian = test system: IGROV1 ovarian
NCI-H23 lung = test system: NCI-H23 lung
786-0 renal = test system: 786-0 renal
M19-MEL melanoma = test system: M19-MEL melanoma
KM20L2 colon = test system: KM20L2 colon
MDA-MB-435 = test system: MDA-MB-435
SR leukemia = test system: SR leukemia
OVCAR-3 ovarian = test system: OVCAR-3 ovarian

| Compound | TGI (SK-MEL-28 melanoma) [µM] | TGI (HCT-116 colon) [µM] | TGI (IGROV1 ovarian) [µM] | TGI (NCI-H23 lung) [µM] | TGI (786-0 renal) [µM] | TGI (M19-MEL melanoma) [µM] | TGI (KM20L2 colon) [µM] | TGI (MDA-MB-435) [nM] | TGI (SR leukemia) [µM] | TGI (OVCAR-3 ovarian) [µM] | GI50 (SK-MEL-28 melanoma) [µM] | GI50 (HCT-116 colon) [µM] | GI50 (IGROV1 ovarian) [µM] | GI50 (NCI-H23 lung) [µM] | GI50 (786-0 renal) [µM] | GI50 (M19-MEL melanoma) [µM] | GI50 (KM20L2 colon) [µM] | GI50 (SR leukemia) [µM] | GI50 (OVCAR-3 ovarian) [µM] |
| --- | --- | --- | --- | --- | --- | --- | --- | --- | --- | --- | --- | --- | --- | --- | --- | --- | --- | --- | --- |
| CCCC(=O)N[C@H]1CCc2cc(OC)c(OC)c(OC)c2-c2ccc(SC)c(=O)cc21 | > 100 | 0.176 | > 100 | 2.18 | 63.1 | > 100 | < 0.01 | < 10 | > 100 | < 0.0423 | – | – | – | – | – | – | – | – | – |
| COC(=O)c1cc(=O)nc2cc3cccccc3n12 | > 100 | > 100 | > 100 | > 100 | > 100 | > 100 | > 100 | – | > 100 | > 100 | – | – | – | – | – | – | – | – | – |
| CCC1=CCN(c2cc(C)ccn2)OC1c1ccccc1 (configuration not stated) | 77.1 | > 100 | > 100 | > 100 | > 100 | > 100 | > 100 | – | 55.7 | > 100 | – | – | – | – | – | – | – | – | – |
| CC(=O)OC(C(=O)[O][Sn]([CH3])([CH3])[CH3])c1ccccc1 (configuration not stated) | > 100 | > 100 | > 100 | > 100 | > 100 | > 100 | > 100 | – | > 100 | > 100 | > 100 | > 100 | > 100 | > 100 | > 100 | > 100 | > 100 | > 100 | > 100 |
| CCCCCCC(O)CC[C@H]1CCC[C@@H](C)N1 (some centres not stated) | > 31.6 | > 100 | > 100 | < 10 | < 10 | > 31.6 | < 10 | – | > 100 | < 10 | – | – | – | – | – | – | – | – | – |
| CCOc1ccc(N=C2NC(=O)C(CC(=O)Nc3ccccc3[N+](=O)[O-])S2)cc1 (configuration not stated) | > 100 | > 100 | > 100 | > 100 | > 100 | > 100 | > 100 | – | > 100 | > 100 | – | – | – | – | – | – | – | – | – |
| O=c1c2c(-c3ccccc3)c3ccccc3nc2cnn1-c1ccccc1 | > 100 | > 100 | > 100 | > 100 | > 100 | > 100 | > 100 | – | > 100 | > 100 | – | – | – | – | – | – | – | – | – |
| COc1ccc(/C=C2\CCC(CCN(C)C)(C3=CCCC3)C2=O)cc1 (configuration not stated) | 35.1 | 29.1 | 33.2 | 81.3 | 28.7 | 28.4 | 28.3 | – | 88.5 | 49.7 | – | – | – | – | – | – | – | – | – |

From PubChem BioAssay (NCI)
